According to patent US20220096505A1, “PHARMACEUTICAL COMPOSITION, METHODS FOR TREATING AND USES THEREOF” (Boehringer Ingelheim International GmbH, priority 2011, published 2022):

Key:
[1] = Particle size distribution measurement by laser diffraction; assay type: physicochemical; conditions: milled active substance
Description: The value X90 refers to the 90% value of the volume distribution measured using a laser diffractometer. In other words, for the purposes of the present invention, the X90 value denotes the particle size below which 90% of the quantity of particles is found based on the volume distribution. Analogously the value X50 refers to the 50% value (median) of the volume distribution measured using a laser diffractometer. In other words, for the purposes of the present invention, the X50 value denotes the particle size below which 50% of the quantity of particles is found based on the volume distribution. Analogously the value X10 refers to the 10% value of the volume distribution measured using a laser diffractometer. In other words, for the purposes of the present invention, the X10 value denotes the particle size below which 10% of the quantity of particles is found based on the volume distribution.
Preferably all X90, X50, X10 values hereinbefore and hereinafter are by volume and determined by laser-diffraction method, in particular low angle laser light scattering, i.e. Fraunhofer diffraction. A preferred test is described in the experimental section. The laser diffraction method is sensitive to the volume of a particle and provides a volume-average particle size, which is equivalent to the weight-average particle size if the density is constant. The skilled artesian knows that the results of the particle size distribution determination by one technique can be correlated with that from another technique, for example on an empirical basis by routine experimentation. Alternatively the particle size distribution in the pharmaceutical composition or dosage form can be determined by microscopy, in particular electron microscopy or scanning electron microscopy.
Examples of typical particle size distribution values X90, X50 and X10 for the preferred active pharmaceutical ingredient according to the invention are shown in the table below.
3. Particle Size Distribution Measurement by Laser Diffraction
Particle size distribution measurement is performed for example via light scattering or laser diffraction technique. To determine the particle size the powder is fed into a laser diffraction spectrometer for example by means of a dispersing unit. The test method is described below in detail:
Equipment: Laser Diffraction Spectrometer Sympatec HELOS Particle Sizer.
Lens: R31 (0.5/0.9 μm-175 μm) Sample Dispersing Unit: Dry disperser RODOS/M
Feed Velocity: 60.00 mm/s Primary pressure: 2.00 bar Injector depression: maximize (mbar)2 Reference Measurement: 10 seconds Cycle Time: 100 msec Trigger Conditions: Start 0.0 seconds after optical concentration ≥1% valid always Stop after 5.0 seconds optical concentration ≤1% or after 30 seconds real time Optical Concentration: Approximately range 3-12%
Number of measurements: 2 (duplicate)
The instrument is set up according to the manufacturer's recommendation and using the manufacturer provided software. The sample container is thoroughly mixed and tumbled prior to removing a portion of the sample to ensure that a representative sample is tested. Duplicate samples are prepared by using a spatula to transfer approximately 100 mg of a sample into the ASPIROS glass vials and cap the vials. The capped cials are placed into the feeder.

[2] = in vivo; cited from earlier work
[3] = metformin on its own, in the diabetic; cited from earlier work
[4] = listed as Active substance Batch 1
[5] = listed as Active substance Batch 2

Compound: 1-chloro-4-(β-D-glucopyranos-1-yl)-2-[4-((S)-tetrahydrofuran-3-yloxy)-benzyl]-benzene [compound (I.9)]
- X10 (10% value of the volume distribution, particle size) [1, 4]: 1.8 μm
- X50 (50% value, median, of the volume distribution, particle size) [1, 4]: 18.9 μm
- X90 (90% value of the volume distribution, particle size) [1, 4]: 45.3 μm
- X10 (10% value of the volume distribution, particle size) [1, 5]: 1.7 μm
- X50 (50% value, median, of the volume distribution, particle size) [1, 5]: 12.1 μm
- X90 (90% value of the volume distribution, particle size) [1, 5]: 25.9 μm

Compound: CC#CCn1c(N2CCC[C@@H](N)C2)nc2c1c(=O)n(Cc1nc(C)c3ccccc3n1)c(=O)n2C [linagliptin]
- route of excretion [2]: primarily excreted by bile and the gut

Compound: CN(C)C(=N)N=C(N)N [metformin]
- average improvement in the HbA1c value [3]: 1.0-1.5%
